# Results taken from article PMC5923142, “Selection and Characterization of Rupintrivir-Resistant Norwalk Virus Replicon Cells In Vitro” (Antimicrobial Agents and Chemotherapy, 2018).
# Columns and labels:
# GI A105V mutant protease = target: T1, GI A105V mutant protease (Norovirus, UniProt Q83883, A1205V); assay: Cell-based FRET assay, GI A105V protease; set-up: species or system norovirus GI.1 (M87661)
# T1 construct: plasmids expressing norovirus protease from GI.1 (M87661); expressed in transfected cells; host or cells: HEK293T
# T1 sequence (Q83883 1101-1281 A1205V): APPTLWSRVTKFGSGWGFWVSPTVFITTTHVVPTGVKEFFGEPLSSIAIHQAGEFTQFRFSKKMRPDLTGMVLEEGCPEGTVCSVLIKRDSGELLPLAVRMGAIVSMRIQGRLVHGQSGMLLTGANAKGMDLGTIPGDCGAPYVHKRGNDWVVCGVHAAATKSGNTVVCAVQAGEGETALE
# Source text: (§1) The generation of plasmids expressing norovirus protease from GI.1 (M87661), GII.4 (DQ658413), or GV (DQ285629) norovirus and FRET assay constructs has been described previously ([18]). The plasmids carrying GI, GII, and GV proteases with the A105V, I109V, or A105V/I109V mutation were generated from the wild-type (WT) protease constructs described above by the QuikChange site-directed mutagenesis method. Mutant MNV genomes for reverse genetics were generated by two-step PCR mutagenesis of the WT MNV genome (pT7 MNV 3RZ) construct as described previously ([27]). The primers used for generation of the plasmids are listed in Tables S1 and S2 in the supplemental material.
# (§2) The YFP/CFP ratio was used to determine FRET efficiency, as described previously ([18], [40]). Briefly, HEK293T cells were plated into black 96-well cell culture microplates (Greiner Bio-One) at a density of 5 × 10^4 cells/well in 100 μl of DMEM containing 10% fetal bovine serum with or without various concentrations of rupintrivir and then incubated for 4 h in a CO2 incubator at 37°C. […] The plates were then analyzed on a SpectraMax i3 instrument in fluorescence mode, with excitation set at 434 nm and the reading emissions set at 477 nm (CFP) and 527 nm (YFP). The background fluorescence from wells transfected with pcDNA3.1 was determined and subtracted. […]
# recombinant WT MNV = assay: Antiviral effect against recombinant WT MNV infection of BV-2 cells (TCID50); type: cell-based, murine norovirus; conditions: BV-2, 24 h
# Procedure: BV-2 cells were infected with recombinant WT MNV or the MNV I109V mutant at an MOI of 0.1 or 1 for 1 h in the CO2 incubator at 37°C. After incubation, the supernatant was removed and the cells were washed twice with PBS, and then complete DMEM containing various concentrations of rupintrivir or 2CMC was added to the cells. After 24 h for incubation, the virus titers of the supernatant were determined by measurement of the TCID50. On the basis of the TCID50, the 90% effective concentration (EC90) values of rupintrivir and 2CMC were calculated using XLfit (version 5.3) software.
# GV A105V protease = target: T2, GV A105V protease (Norovirus, UniProt Q80J95, A1099V); assay: Cell-based FRET assay, GV A105V protease; set-up: species or system murine norovirus (MNV) GV (DQ285629); conditions: GV A105V vs GV WT
# T2 construct: plasmids expressing norovirus protease from GI.1 (M87661), GII.4 (DQ658413), or GV (DQ285629) norovirus; expressed in transfected cells; host or cells: HEK293T
# T2 sequence (Q80J95 995-1177 A1099V): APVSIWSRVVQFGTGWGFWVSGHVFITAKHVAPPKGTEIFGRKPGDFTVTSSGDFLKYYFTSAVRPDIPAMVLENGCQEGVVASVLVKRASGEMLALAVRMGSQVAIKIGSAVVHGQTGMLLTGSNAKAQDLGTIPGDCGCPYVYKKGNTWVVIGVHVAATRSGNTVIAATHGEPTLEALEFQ
# Source text: as §1, §2
compound,measurement,setting,value
"CCOC(=O)/C=C/[C@H](C[C@@H]1CCNC1=O)NC(=O)[C@@H](CC(=O)[C@@H](NC(=O)c1cc(C)on1)C(C)C)Cc1ccc(F)cc1 [rupintrivir, Rupintrivir]",IC50,"GI A105V mutant protease; HEK293T cells, GI NS1/2-NS3 FRET substrate",4.2 ± 1.1 µM
same,fold increase in IC50,GI A105V mutant protease; vs GI WT protease,3.2 fold
same,EC90,recombinant WT MNV; MOI 0.1 TCID50/cell,9.1 µM
same,EC90,recombinant WT MNV; MOI 1 TCID50/cell,8.9 µM
same,impact of substitution on susceptibility,GV A105V protease,no appreciable impact
